Assay results from patent US20070117770A1, “Human ribosomal DNA (rDNA) and ribosomal RNA (rRNA) nucleic acids and uses thereof” (Cylene Pharmaceuticals, Inc., priority 2005, published 2007).

Experiments:
Test in all cases: Protein kinase inhibition assay
Axl(h) = Axl(h) (Homo sapiens, UniProt P30530); format: biochemical; details: read-out: percent residual activity of Axl(h)
Method: (§1) Certain compounds were tested for activity in protein kinase inhibition assays. All substrates were dissolved and diluted to working stocks in de-ionized water, apart from histone H1 (10× working stock in 20 mM MOPS pH 7.0), PDKtide (10× working stock in 50 mM Tris pH 7.0) ATF2 (which is typically stored at a 20× working stock in 50 mM Tris pH 7.5, 150 mM NaCl, 0.1 mM EGTA, 0.03% Brij-35, 50% glycerol, 1 mM benzamidine, 0.2 mM PMSF and 0.1% R-mercaptoethanol), KKLNRTLSFAEPG (SEQ ID NO:203) and RRRLSFAEPG (SEQ ID NO:204) (50 mM HEPES pH 7.4) and GGEEEEYFELVKKKK (SEQ ID NO:205) (20 mM MOPS pH 7.0). All kinases were pre-diluted to a 10× working concentration prior to addition into the assay. The composition of the dilution buffer for each kinase is detailed below.
(§2) In a final reaction volume of 25 μl, Axl (h) (5-10 mU) is incubated with 8 mM MOPS pH 7.0, 0.2 mM EDTA, 250 μM KKSRGDYMTMQIG (SEQ ID NO:210), 10 mM MgAcetate and [y-33P-ATP] (specific activity approx. 500 cpm/pmol, concentration as required). The reaction is initiated by the addition of the MgATP mix. After incubation for 40 minutes at room temperature, the reaction is stopped by the addition of 5 μl of a 3% phosphoric acid solution. 10 μl of the reaction is then spotted onto a P30 filtermat and washed three times for 5 minutes in 75 mM phosphoric acid and once in methanol prior to drying and scintillation counting.

PKA(b) = PKA(b) (Bos taurus, UniProt P00517); format: biochemical, bovine; details: read-out: percent residual activity of PKA(b)
Method: as §1
as §2, with “PKA (b)” for “Axl (h)”, “30” for “250”, “LRRASLG” for “KKSRGDYMTMQIG”, “NO:209) (Kemptide),” for “NO:210),”, “50” for “75”

ErbB4(h) = ErbB4(h) (Homo sapiens, UniProt Q15303); format: biochemical; details: read-out: percent residual activity of ErbB4(h)
Method: as §1
as §2, with “μl, ErbB4” for “μl, Axl”, “EDTA, 2.5 mM MnCl2, 0.1 mg/ml poly(Glu, Tyr) 4:1,” for “EDTA, 250 μM KKSRGDYMTMQIG (SEQ ID NO:210),”, “and [gamma-33P-ATP]” for “and [y-33P-ATP]”, “10 ll” for “10 μl”, “a Filtermat A” for “a P30 filtermat”

MSK1(h) = MSK1(h) (Homo sapiens, UniProt O75582); format: biochemical; details: read-out: percent residual activity of MSK1(h)
Method: as §1
as §2, with “MSK1” for “Axl”, “30” for “250”, “GRPRTSSFAEGKK” for “KKSRGDYMTMQIG”, “NO:220),” for “NO:210),”, “[gamma-33P-ATP]” for “[y-33P-ATP]”

CK2(h) = CK2(h) (Homo sapiens, UniProt P68400); format: biochemical; details: read-out: percent residual activity of CK2(h)
Method: as §1
In a final reaction volume of 25 μl, CK2 (h) (5-10 mU) is incubated with 20 mM HEPES pH 7.6, 0.15 M NaCl, 0.1 mM EDTA, 5 mM DTT, 0.1% Triton X-100, 165 μM RRRDDDSDDD (SEQ ID NO:215), 10 mM MgAcetate and [gamma-33P-ATP] (specific activity approx. 500 cpm/pmol, concentration as required). The reaction is initiated by the addition of the MgATP mix. After incubation for 40 minutes at room temperature, the reaction is stopped by the addition of 5 μl of a 3% phosphoric acid solution. […]

Lck(h) = Lck(h) (Homo sapiens, UniProt P06239); format: biochemical; details: read-out: percent residual activity of Lck(h)
Method: as §1
In a final reaction volume of 25 μl, Lck (h) (5-10 mU) is incubated with 50 mM Tris pH 7.5, 0.1 mM EGTA, 0.1 mM Na3VO4, 250 μM KVEKIGEGTYGVVYK (SEQ ID NO:211) (Cdc2 peptide), 10 mM MgAcetate and [gamma-33P-ATP] (specific activity approx. 500 cpm/pmol, concentration as required). The reaction is initiated by the addition of the MgATP mix. After incubation for 40 minutes at room temperature, the reaction is stopped by the addition of 5 μl of a 3% phosphoric acid solution. […]

Chain of CK2(h) (P68400 whole entry): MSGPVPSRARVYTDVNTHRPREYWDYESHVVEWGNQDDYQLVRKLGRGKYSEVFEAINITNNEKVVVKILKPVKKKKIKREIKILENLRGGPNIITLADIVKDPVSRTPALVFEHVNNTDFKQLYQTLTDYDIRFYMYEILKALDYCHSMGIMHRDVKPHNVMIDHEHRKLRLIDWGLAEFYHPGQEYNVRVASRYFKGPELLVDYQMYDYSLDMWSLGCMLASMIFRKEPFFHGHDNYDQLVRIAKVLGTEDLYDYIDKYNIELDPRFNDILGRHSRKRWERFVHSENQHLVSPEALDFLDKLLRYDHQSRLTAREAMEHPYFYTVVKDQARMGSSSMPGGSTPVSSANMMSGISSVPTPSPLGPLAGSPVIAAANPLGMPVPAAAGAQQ
Chain of CK2(h) (P67870 whole entry partner): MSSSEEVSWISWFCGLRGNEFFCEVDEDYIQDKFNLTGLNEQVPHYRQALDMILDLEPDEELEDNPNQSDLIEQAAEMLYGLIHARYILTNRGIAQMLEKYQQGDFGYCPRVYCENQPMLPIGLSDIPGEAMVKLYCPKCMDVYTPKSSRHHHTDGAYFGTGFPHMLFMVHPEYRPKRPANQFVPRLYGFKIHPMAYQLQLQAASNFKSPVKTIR
Chain of Axl(h) (P30530 26-894): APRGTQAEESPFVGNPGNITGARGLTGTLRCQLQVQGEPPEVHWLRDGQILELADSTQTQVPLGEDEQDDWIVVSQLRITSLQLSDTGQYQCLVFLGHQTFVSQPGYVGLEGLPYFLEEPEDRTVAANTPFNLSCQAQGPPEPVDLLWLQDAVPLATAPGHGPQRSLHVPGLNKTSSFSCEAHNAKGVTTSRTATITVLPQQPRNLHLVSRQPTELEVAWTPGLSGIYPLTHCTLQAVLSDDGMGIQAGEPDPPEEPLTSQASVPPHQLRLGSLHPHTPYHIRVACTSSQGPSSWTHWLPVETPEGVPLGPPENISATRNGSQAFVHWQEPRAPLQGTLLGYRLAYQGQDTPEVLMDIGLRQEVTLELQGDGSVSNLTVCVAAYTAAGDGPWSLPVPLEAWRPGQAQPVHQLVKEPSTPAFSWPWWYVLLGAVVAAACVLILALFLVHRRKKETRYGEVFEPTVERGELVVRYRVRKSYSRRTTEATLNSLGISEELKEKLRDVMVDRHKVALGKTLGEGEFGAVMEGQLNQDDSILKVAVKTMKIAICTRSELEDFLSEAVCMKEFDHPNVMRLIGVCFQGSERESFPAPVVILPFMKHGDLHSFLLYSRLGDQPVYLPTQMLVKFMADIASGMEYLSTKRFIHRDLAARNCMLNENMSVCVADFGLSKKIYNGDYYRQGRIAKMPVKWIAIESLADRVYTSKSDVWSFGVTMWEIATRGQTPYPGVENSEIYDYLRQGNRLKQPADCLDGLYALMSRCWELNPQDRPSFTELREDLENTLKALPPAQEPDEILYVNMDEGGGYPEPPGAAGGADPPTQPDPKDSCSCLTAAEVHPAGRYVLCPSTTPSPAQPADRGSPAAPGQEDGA
Chain of MSK1(h) (O75582 whole entry): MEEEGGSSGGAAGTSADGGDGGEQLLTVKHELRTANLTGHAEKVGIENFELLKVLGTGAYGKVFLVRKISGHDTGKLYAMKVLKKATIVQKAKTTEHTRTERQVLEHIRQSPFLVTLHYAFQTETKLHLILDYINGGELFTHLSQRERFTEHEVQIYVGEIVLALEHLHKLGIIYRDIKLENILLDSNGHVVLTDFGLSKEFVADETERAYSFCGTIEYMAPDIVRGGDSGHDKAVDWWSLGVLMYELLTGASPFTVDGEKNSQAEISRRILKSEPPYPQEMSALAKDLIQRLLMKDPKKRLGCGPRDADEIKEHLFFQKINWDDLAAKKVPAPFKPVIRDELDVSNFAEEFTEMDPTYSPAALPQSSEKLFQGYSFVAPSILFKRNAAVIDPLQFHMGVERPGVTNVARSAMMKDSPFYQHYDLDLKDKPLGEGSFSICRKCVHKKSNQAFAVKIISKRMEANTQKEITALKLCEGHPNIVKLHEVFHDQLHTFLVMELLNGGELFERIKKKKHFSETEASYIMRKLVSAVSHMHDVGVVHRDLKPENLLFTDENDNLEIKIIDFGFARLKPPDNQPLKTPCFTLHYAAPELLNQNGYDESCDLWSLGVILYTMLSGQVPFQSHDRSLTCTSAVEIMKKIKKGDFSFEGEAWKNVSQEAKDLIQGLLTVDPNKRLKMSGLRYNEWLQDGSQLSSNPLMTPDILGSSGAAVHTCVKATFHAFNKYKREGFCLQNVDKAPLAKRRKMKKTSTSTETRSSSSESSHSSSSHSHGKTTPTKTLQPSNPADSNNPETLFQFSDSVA
Chain of Lck(h) (P06239 whole entry): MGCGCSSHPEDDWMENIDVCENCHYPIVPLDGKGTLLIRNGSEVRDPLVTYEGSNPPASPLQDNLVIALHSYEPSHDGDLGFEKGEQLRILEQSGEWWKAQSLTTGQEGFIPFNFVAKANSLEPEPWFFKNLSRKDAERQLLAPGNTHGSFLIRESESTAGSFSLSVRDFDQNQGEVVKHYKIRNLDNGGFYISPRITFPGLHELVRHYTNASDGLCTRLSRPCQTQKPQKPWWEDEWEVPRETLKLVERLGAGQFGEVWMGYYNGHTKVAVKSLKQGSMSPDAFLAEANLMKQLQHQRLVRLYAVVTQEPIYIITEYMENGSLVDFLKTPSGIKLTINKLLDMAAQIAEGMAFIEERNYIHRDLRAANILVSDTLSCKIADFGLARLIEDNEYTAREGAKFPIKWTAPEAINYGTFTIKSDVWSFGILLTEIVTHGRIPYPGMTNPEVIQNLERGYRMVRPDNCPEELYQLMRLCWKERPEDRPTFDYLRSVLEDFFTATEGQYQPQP
Chain of ErbB4(h) (Q15303 26-1308): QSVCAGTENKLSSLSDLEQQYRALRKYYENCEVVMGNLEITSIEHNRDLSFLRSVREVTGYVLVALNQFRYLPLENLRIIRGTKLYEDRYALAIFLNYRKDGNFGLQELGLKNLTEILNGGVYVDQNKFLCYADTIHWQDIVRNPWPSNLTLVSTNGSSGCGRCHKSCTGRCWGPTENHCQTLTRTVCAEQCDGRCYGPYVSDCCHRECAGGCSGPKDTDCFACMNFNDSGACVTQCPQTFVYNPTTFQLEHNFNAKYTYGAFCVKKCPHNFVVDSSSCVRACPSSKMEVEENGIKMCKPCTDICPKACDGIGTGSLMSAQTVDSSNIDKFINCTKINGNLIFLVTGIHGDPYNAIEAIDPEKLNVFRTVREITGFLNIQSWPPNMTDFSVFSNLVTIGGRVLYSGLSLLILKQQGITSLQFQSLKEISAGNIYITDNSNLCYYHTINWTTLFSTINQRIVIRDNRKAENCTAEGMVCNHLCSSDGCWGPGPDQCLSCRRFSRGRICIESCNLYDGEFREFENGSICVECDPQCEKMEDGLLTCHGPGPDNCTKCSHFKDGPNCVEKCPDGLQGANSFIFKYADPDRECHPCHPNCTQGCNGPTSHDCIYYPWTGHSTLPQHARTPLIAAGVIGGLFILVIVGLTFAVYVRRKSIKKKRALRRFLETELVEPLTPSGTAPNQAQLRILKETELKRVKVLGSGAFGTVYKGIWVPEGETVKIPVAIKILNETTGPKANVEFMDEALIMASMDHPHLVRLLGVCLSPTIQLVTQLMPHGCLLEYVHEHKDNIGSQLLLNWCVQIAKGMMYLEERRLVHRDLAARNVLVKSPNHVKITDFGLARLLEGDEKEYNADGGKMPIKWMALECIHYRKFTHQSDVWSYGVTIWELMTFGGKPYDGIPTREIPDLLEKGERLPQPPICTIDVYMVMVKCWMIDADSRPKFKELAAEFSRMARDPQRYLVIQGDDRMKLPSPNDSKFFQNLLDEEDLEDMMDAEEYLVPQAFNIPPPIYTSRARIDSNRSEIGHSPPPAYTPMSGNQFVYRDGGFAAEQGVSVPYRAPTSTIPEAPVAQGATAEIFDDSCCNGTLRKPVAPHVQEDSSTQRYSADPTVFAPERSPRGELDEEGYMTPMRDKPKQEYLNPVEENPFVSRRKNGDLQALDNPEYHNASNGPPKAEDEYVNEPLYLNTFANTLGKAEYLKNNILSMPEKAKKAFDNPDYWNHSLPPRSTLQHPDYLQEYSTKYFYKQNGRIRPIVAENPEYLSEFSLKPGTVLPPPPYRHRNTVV

| SMILES | remaining activity at 2.5 µM (Axl(h)) [%] | remaining activity at 2.5 µM (PKA(b)) [%] | remaining activity at 2.5 µM (ErbB4(h)) [%] | remaining activity at 2.5 µM (MSK1(h)) [%] | remaining activity at 2.5 µM (CK2(h)) [%] | remaining activity at 2.5 µM (Lck(h)) [%] |
| --- | --- | --- | --- | --- | --- | --- |
| CN1CCCC1CCNC(=O)c1cn2c3c(c(N4CCC(c5cnccn5)C4)c(F)cc3c1=O)Oc1cc3ccccc3cc1-2 (stereo not drawn) [Compound A-1] | 75 | 99 | 92 | 61 | 104 | 170 |
| CC(=O)N1CCN(c2ccc3c(=O)c(C(=O)NCCN4CCCC4)c4n(C)c5ccccc5n4c3n2)CC1 [Compound B-1] | 102 | 96 | 107 | 99 | 102 | 115 |
